Measurements taken from ChEMBL document CHEMBL5500344, “Design, synthesis and biological evaluation of matrine contains benzimidazole derivatives as dual TOPOI and PARP inhibitors for cancer therapy” (Eur J Med Chem, 2024).
Active and inactive are the calls of the source. No cut-off for these calls is given here.

Experiments:
[1] = tested on: HepG2; assay: Antiproliferative activity against human HepG2 cells assessed as inhibition of cell growth incubated for 48 hrs by MTT assay; type: functional, cell-based; conditions: HepG2, 48 h
[2] = tested on: HeLa; assay: Antiproliferative activity against human HeLa cells assessed as inhibition of cell growth incubated for 48 hrs by MTT assay; type: functional, cell-based
[3] = tested on: A549; assay: Antiproliferative activity against human A549 cells assessed as inhibition of cell growth incubated for 48 hrs by MTT assay; type: functional, cell-based; conditions: A549, 48 h
[4] = tested on: HGC-27; assay: Antiproliferative activity against human HGC-27 cells assessed as inhibition of cell growth incubated for 48 hrs by MTT assay; type: functional, cell-based; conditions: HGC-27, 48 h, read-out: IC50
[5] = target: T1, DNA topoisomerase 1 (Homo sapiens) (UniProt P11387); assay: Inhibition of human topoisomerase 1 assessed as relaxation of supercoiled pBR322 plasmid DNA at 100 uM incubated for 10 to 15 mins by EtBr staining based agarose gel electrophoresis method; conditions: time 10-15 min
T1 sequence (whole entry): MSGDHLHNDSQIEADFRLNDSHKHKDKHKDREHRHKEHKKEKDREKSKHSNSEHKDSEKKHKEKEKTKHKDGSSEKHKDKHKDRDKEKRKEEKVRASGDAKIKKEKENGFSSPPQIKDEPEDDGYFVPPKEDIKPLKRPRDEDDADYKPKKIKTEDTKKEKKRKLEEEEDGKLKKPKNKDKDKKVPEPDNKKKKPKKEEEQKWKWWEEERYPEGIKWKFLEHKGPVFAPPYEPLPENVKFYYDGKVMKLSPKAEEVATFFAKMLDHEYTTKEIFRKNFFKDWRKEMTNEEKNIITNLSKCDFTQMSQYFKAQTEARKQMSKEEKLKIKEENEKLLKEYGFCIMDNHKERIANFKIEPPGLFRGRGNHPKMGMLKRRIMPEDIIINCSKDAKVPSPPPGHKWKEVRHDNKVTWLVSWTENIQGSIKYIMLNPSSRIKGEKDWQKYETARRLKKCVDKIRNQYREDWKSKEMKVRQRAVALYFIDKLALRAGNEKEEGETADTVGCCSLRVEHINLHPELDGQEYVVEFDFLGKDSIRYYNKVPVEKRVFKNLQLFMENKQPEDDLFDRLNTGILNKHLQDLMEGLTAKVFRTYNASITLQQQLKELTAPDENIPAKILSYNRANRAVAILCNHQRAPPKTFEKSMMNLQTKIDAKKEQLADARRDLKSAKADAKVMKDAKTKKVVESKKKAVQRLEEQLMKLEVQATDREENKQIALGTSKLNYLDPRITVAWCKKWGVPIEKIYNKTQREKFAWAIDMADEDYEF

[6] = tested on: L02; assay: Antiproliferative activity against human L02 cells assessed as inhibition of cell growth incubated for 48 hrs by MTT assay; type: functional, cell-based; conditions: L02, 48 h
[7] = target: Poly [ADP-ribose] polymerase 1 (Homo sapiens, UniProt P09874); assay: Inhibition of PARP-1 (unknown origin) incubated for 70 mins by HT universal chemiluminescent assay
Chain of Poly [ADP-ribose] polymerase 1 (P09874 whole entry): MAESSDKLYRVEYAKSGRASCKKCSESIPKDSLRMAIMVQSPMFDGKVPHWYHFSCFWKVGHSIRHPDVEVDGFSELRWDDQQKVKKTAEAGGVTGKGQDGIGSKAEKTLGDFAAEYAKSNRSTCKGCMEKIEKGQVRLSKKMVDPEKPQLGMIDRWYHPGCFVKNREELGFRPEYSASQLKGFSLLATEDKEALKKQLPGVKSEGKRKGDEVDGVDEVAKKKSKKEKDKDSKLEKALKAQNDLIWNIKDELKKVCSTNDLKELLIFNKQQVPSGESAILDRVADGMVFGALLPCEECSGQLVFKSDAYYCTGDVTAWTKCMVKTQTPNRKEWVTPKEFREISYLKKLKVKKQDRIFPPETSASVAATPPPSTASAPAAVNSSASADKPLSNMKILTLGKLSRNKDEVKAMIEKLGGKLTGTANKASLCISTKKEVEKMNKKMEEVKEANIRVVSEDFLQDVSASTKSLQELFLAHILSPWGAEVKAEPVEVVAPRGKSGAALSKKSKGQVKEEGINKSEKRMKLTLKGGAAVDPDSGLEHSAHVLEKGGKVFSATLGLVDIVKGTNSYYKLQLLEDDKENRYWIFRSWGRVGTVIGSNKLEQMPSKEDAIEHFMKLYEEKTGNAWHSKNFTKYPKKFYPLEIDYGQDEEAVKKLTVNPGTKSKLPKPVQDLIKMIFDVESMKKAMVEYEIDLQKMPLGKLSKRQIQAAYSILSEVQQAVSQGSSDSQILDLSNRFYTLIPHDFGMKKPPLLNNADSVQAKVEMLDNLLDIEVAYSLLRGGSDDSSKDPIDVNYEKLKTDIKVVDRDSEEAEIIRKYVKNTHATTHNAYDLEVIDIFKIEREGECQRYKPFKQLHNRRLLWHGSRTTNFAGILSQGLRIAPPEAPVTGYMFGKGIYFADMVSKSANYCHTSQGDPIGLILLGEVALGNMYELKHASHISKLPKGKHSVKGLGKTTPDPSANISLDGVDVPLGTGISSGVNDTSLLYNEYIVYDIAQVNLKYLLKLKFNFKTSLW

| SMILES | IC50 [1] [µM] | IC50 [2] [µM] | IC50 [3] [µM] | IC50 [4] [µM] | inhibition [5] | IC50 [6] [µM] | IC50 [7] [µM] |
| --- | --- | --- | --- | --- | --- | --- | --- |
| O=S(=O)(c1ccc(Br)cc1)N1C[C@@H]2CCCN3CCC[C@@H]([C@H]23)[C@H]1CCCc1nc2cc(Cl)ccc2n1S(=O)(=O)c1ccc(Br)cc1 | > 80 | 59.6 | 79.9 | 77.2 | – | – | – |
| O=S(=O)(c1cccc2ccccc12)N1C[C@@H]2CCCN3CCC[C@@H]([C@H]23)[C@H]1CCCc1nc2ccc(F)cc2n1S(=O)(=O)c1cccc2ccccc12 | 19.8 | 40 | 62.4 | 12.4 | – | – | – |
| CC(C)(C)c1ccc(S(=O)(=O)N2C[C@@H]3CCCN4CCC[C@@H]([C@H]34)[C@H]2CCCc2nc3ccc([N+](=O)[O-])cc3n2S(=O)(=O)c2ccc(C(C)(C)C)cc2)cc1 | 52.8 | 70.1 | 69.3 | 47.8 | – | – | – |
| Cc1ccc(S(=O)(=O)N2C[C@@H]3CCCN4CCC[C@@H]([C@H]34)[C@H]2CCCc2nc3cc(Br)ccc3n2S(=O)(=O)c2ccc(C)cc2)cc1 | 4.92 | 7.45 | 10.8 | 6.36 | Active | > 64 | 1.41 |
| O=C(CCC[C@@H]1[C@H]2CCCN3CCC[C@@H](CN1C(=O)OCC1c4ccccc4-c4ccccc41)[C@@H]23)NCCCc1nc2ccc(C(F)(F)F)cc2[nH]1 | 22.5 | 13.2 | 18.7 | 19.7 | – | – | – |
| O=S(=O)(c1ccc(C(F)(F)F)cc1)N1C[C@@H]2CCCN3CCC[C@@H]([C@H]23)[C@H]1CCCc1nc2ccc(Cl)cc2n1S(=O)(=O)c1ccc(C(F)(F)F)cc1 | > 80 | > 80 | > 80 | 70.3 | – | – | – |
| C[C@]1(c2nc3c(C(N)=O)cccc3[nH]2)CCCN1 [VELIPARIB] | 13.7 | 18.1 | 15.2 | 16 | – | – | – |
| O=C(CCC[C@@H]1[C@H]2CCCN3CCC[C@@H](CN1C(=O)OCC1c4ccccc4-c4ccccc41)[C@@H]23)NCCCc1nc2ccccc2[nH]1 | 37.4 | 21.7 | 30.7 | 24.4 | – | – | – |
| Cc1ccc(S(=O)(=O)N2C[C@@H]3CCCN4CCC[C@@H]([C@H]34)[C@H]2CCCc2nc3cc([N+](=O)[O-])ccc3n2S(=O)(=O)c2ccc(C)cc2)cc1 | 52.3 | > 80 | 53.2 | 47.4 | – | – | – |
| Cn1c(CCC[C@@H]2[C@H]3CCCN4CCC[C@@H](CN2C(=O)OCC2c5ccccc5-c5ccccc52)[C@@H]34)nc2ccc([N+](=O)[O-])cc21 | 13.8 | 23.8 | 31 | 11.1 | – | – | – |
| O=C(CCC[C@@H]1[C@H]2CCCN3CCC[C@@H](CN1C(=O)OCC1c4ccccc4-c4ccccc41)[C@@H]23)NCCCc1nc2ccc(F)cc2[nH]1 | 6.69 | 16 | 11.8 | 8.12 | Active | > 64 | > 16 |
| Cc1ccc(S(=O)(=O)N2C[C@@H]3CCCN4CCC[C@@H]([C@H]34)[C@H]2CCCc2nc3ccccc3n2S(=O)(=O)c2ccc(C)cc2)cc1 | 13.5 | 49.6 | 69.9 | 18.2 | – | – | – |
| O=C(OCC1c2ccccc2-c2ccccc21)N1C[C@@H]2CCCN3CCC[C@@H]([C@H]23)[C@H]1CCCc1nc2ccc(Br)cc2[nH]1 | 11.6 | 15.1 | 20.8 | 10.4 | – | – | – |
| O=S(=O)(c1ccc(C(F)(F)F)cc1)N1C[C@@H]2CCCN3CCC[C@@H]([C@H]23)[C@H]1CCCc1nc2cc(Cl)ccc2n1S(=O)(=O)c1ccc(C(F)(F)F)cc1 | 9.17 | 62.4 | 57.3 | 8.65 | – | > 64 | 14.4 |
| CC(C)(C)c1ccc(S(=O)(=O)N2C[C@@H]3CCCN4CCC[C@@H]([C@H]34)[C@H]2CCCc2nc3cc([N+](=O)[O-])ccc3n2S(=O)(=O)c2ccc(C(C)(C)C)cc2)cc1 | 50.2 | 65.6 | 62.8 | 44.2 | – | – | – |
| O=C(OCC1c2ccccc2-c2ccccc21)N1C[C@@H]2CCCN3CCC[C@@H]([C@H]23)[C@H]1CCCc1nc2ccc(C(F)(F)F)cc2n1C(=O)OCC1c2ccccc2-c2ccccc21 | 28.6 | 21.2 | 19 | 27.8 | – | – | – |
| O=C(CCC[C@@H]1[C@H]2CCCN3CCC[C@@H](CN1C(=O)OCC1c4ccccc4-c4ccccc41)[C@@H]23)Nc1nc2ccccc2[nH]1 | 6.45 | 16.1 | 12.3 | 7.38 | Active | > 64 | 2.58 |
| Cc1ccc(S(=O)(=O)N2C[C@@H]3CCCN4CCC[C@@H]([C@H]34)[C@H]2CCCc2nc3ccc(Br)cc3n2S(=O)(=O)c2ccc(C)cc2)cc1 | 5.89 | 8.56 | 12.3 | 9.38 | – | > 64 | 4.17 |
| O=S(=O)(c1ccc(Cl)cc1)N1C[C@@H]2CCCN3CCC[C@@H]([C@H]23)[C@H]1CCCc1nc2ccc(Cl)cc2n1S(=O)(=O)c1ccc(Cl)cc1 | 11.2 | 53.2 | 46.1 | 12.1 | – | – | – |
| O=S(=O)(c1ccc(Cl)cc1)N1C[C@@H]2CCCN3CCC[C@@H]([C@H]23)[C@H]1CCCc1nc2cc(Cl)ccc2n1S(=O)(=O)c1ccc(Cl)cc1 | 21.6 | > 80 | 68.3 | 18.4 | – | – | – |
| O=C(OCC1c2ccccc2-c2ccccc21)N1C[C@@H]2CCCN3CCC[C@@H]([C@H]23)[C@H]1CCCc1nc2ccc(C(F)(F)F)cc2[nH]1 | 27.7 | 25.5 | 33.6 | 25.6 | – | – | – |
| O=C(OCC1c2ccccc2-c2ccccc21)N1C[C@@H]2CCCN3CCC[C@@H]([C@H]23)[C@H]1CCCc1nc2ccccc2n1C(=O)OCC1c2ccccc2-c2ccccc21 | 16.5 | 16.6 | 24.1 | 13.8 | – | – | – |
| O=S(=O)(c1ccc(Br)cc1)N1C[C@@H]2CCCN3CCC[C@@H]([C@H]23)[C@H]1CCCc1nc2ccc(Cl)cc2n1S(=O)(=O)c1ccc(Br)cc1 | 32.2 | 71.2 | 68.2 | 29.3 | – | – | – |
| O=C(OCC1c2ccccc2-c2ccccc21)N1C[C@@H]2CCCN3CCC[C@@H]([C@H]23)[C@H]1CCCc1nc2ccc(Cl)cc2[nH]1 | 19.7 | 20.4 | 36.3 | 15.2 | – | – | – |
| CC(C)(C)c1ccc(S(=O)(=O)N2C[C@@H]3CCCN4CCC[C@@H]([C@H]34)[C@H]2CCCc2nc3cc(Cl)ccc3n2S(=O)(=O)c2ccc(C(C)(C)C)cc2)cc1 | > 80 | 66.3 | 77.5 | 58.9 | – | – | – |
| Cn1c(CCCNC(=O)CCC[C@@H]2[C@H]3CCCN4CCC[C@@H](CN2C(=O)OCC2c5ccccc5-c5ccccc52)[C@@H]34)nc2ccc([N+](=O)[O-])cc21 | 23.8 | 15.5 | 20.6 | 16.8 | – | – | – |
| Cc1ccc(S(=O)(=O)N2C[C@@H]3CCCN4CCC[C@@H]([C@H]34)[C@H]2CCCc2nc3ccc([N+](=O)[O-])cc3n2S(=O)(=O)c2ccc(C)cc2)cc1 | 40 | 71.8 | 74.2 | 40.2 | – | – | – |
| CC(C)(C)c1ccc(S(=O)(=O)N2C[C@@H]3CCCN4CCC[C@@H]([C@H]34)[C@H]2CCCc2nc3ccccc3n2S(=O)(=O)c2ccc(C(C)(C)C)cc2)cc1 | 11.6 | 55.6 | 59.7 | 22.2 | – | – | – |
| O=S(=O)(c1cccc2ccccc12)N1C[C@@H]2CCCN3CCC[C@@H]([C@H]23)[C@H]1CCCc1nc2cc(F)ccc2n1S(=O)(=O)c1cccc2ccccc12 | 6.85 | 10.9 | 16.9 | 7.56 | – | > 64 | 13.8 |
| CC(C)(C)c1ccc(S(=O)(=O)N2C[C@@H]3CCCN4CCC[C@@H]([C@H]34)[C@H]2CCCc2nc3ccc(Cl)cc3n2S(=O)(=O)c2ccc(C(C)(C)C)cc2)cc1 | 70.7 | 78.5 | 67.2 | 60.3 | – | – | – |
